Values of other authors as cited in US5849696A, “Composition and method of treating hepatitis C” (The Board of Governors of Wayne State University, priority 1993, dated 1998).
Like-named read-outs stand apart in the source and are kept apart here. Where no end group is shown, it is not given here.

Tests used:
[1] = tested on: chronic hepatitis C (NANB hepatitis)
HCV = conditions: in vivo
hepatitis B virus (HBV) = conditions: treated for a year
[2] = tested on: natural killer-cell activity; conditions: THNα1 together with interferon, immunosuppressed mice
[3] = tested on: Woodchuck Hepatitis Virus; conditions: woodchuck infected with Woodchuck Hepatitis Virus
[4] = tested on: nonsmall cell lung cancer

Molecule: interferon α
- mean serum ALT and histological features of the liver (chronic HCV infection; 2 MU subcutaneously three times weekly for six months): improved significantly
- complete response (decline in mean serum ALT to the normal range during therapy) (chronic HCV infection; 2 MU subcutaneously three times weekly for six months, ten of twenty-one patients): 48%
- further patients with decrease in mean ALT of more than 50% (chronic HCV infection; 2 MU three times weekly for six months): three
- patients still with normal serum ALT values (chronic HCV infection; six to twelve months after discontinuation of therapy, two patients): 10%
- relapse within six months after the completion of treatment ([1]; 1 MU): 44%
- serum ALT response ([1]; 1 MU three times weekly for 24 weeks, nine of sixteen patients): 56%
- liver histology ([1]; 3 MU): histologic improvement
- relapse within six months after the completion of treatment ([1]; 3 MU): 51%
- serum ALT level became completely normal ([1]; 3 MU three times weekly for 24 weeks, 22 of the 26 patients who responded): 85%
- mean serum ALT levels during the 24 week treatment period (chronic NANB hepatitis; 1 MU three times a week): decreased
- proportion of patients with normal ALT levels (chronic NANB hepatitis; at 24 weeks, 1 MU group): 45%
- proportion of patients with normal ALT levels (chronic NANB hepatitis; at 24 weeks, 3 MU group): 39%
- proportion of patients with normal ALT levels (chronic NANB hepatitis; at week 48, 1 MU group): 20%
- proportion of patients with normal ALT levels (chronic NANB hepatitis; at week 48, 3 MU group): 28%
- repeat liver biopsy, severity of histological changes (chronic NANB hepatitis; higher dose group (3 MU)): significant decrease in the severity of histological changes
- relapse in disease activity when interferon was stopped (chronic NANB hepatitis; responders): approximately half of the responders

Molecule: Nc1nc2c(ncn2COCCO)c(=O)[nH]1 [acyclovir]
- effect on HCV-related diseases (HCV): ineffective

Molecule: Thymosin α-1 (SDAAVDTSSEITTKDLKEKKEVVEEAEN; ends and bridges not checked; UniProt P06454 2-29, looked up) [THNα1]
- patients with reduced levels of serum HBV DNA (hepatitis B virus (HBV); pooled THNα1 (5 patients) and TF-5 (2 patients)): 6 of the 7
- patients initially positive for serum HBsAg who subsequently cleared this antigen (hepatitis B virus (HBV); pooled THNα1 and TF-5 patients): 5 of 6
- serum ALT (hepatitis B virus (HBV); THNα1 (5 patients) or TF-5 (2 patients)): marked decrease
- interleukin-2 receptor expression (human lymphocytes): increase
- production of interferon-α, interferon-γ and interleukin-2 (human lymphocytes): promote production
- effect on natural killer-cell activity [2]: synergistic effect
- clinical parameters [3]: no improvement
- viral DNA replication [3]: suppressed viral DNA replication
- clinical or biochemical toxicity (influenza vaccine; drug recipients): No clinical or biochemical toxicity was observed
- levels of antibody to influenza (influenza vaccine; six weeks post-vaccine, subcutaneously twice weekly): higher levels of antibody to influenza than controls
- immune function ([4]; after radiotherapy): some restoration of radiation-suppressed immune function
- relapse-free survival and overall survival ([4]; both THNα1 treatment groups versus placebo group): greater
- T-cell numbers ([4]; human, in vivo): no increase
